The values that follow are results of earlier work, collected in patent US20240325349A1, “LIQUID PHARMACEUTICAL FORMULATIONS OF TOPIRAMATE” (TaP Pharmaceuticals AG, priority 2023, published 2024).

Read-outs that look alike come from different tables or passages of the source.

`CC1(C)O[C@@H]2[C@@H](CO[C@@]3(COS(N)(=O)=O)OC(C)(C)O[C@@H]23)O1` [Topiramate, 2,3:4,5-Di-O-isopropylidene-β-D-fructopyranose sulfamate]: the “Topiramate Solubility” value is, setting by setting: (in Aconon C-30 (oil)) 50.7 ± 3.5 mg/mL; (in Capmul MCM C-8 (oil)) 62.5 ± 3.9 mg/mL; (in Capmul MCM EP (oil)) 61.4 ± 3.8 mg/mL; (in Captex 355 (oil)) 14.5 ± 0.8 mg/mL; (in Carbitol (cosurfactant)) 355.6 ± 29.2 mg/mL; (in Cremophor EL (surfactant)) 78 ± 2.1 mg/mL. In addition, the “Topiramate Solubility” value (in Cremophor RH-40 (surfactant)) is given as 46 ± 2.7 mg/mL; the “Topiramate Solubility” value (in Ethyl Oleate (oil)) is recorded as 6.7 ± 0.3 mg/mL; the “Topiramate Solubility” value (in IPM (oil)) is on record as 6.7 ± 0.4 mg/mL; the “Topiramate Solubility” value (in Oleic Acid (oil)) is given as 0.1 ± 0.1 mg/mL; the “Topiramate Solubility” value (in PEG 200 (cosurfactant)) is reported as 169.6 ± 2.3 mg/mL; the “Topiramate Solubility” value (in PEG 400 (cosurfactant)) is 148.9 ± 3.5 mg/mL. The “Topiramate Solubility” value is, setting by setting: (in Sesfol 218 (oil)) 53.6 ± 2.6 mg/mL; (in Tween 20 (surfactant)) 142.8 ± 6.4 mg/mL; (in Tween 80 (surfactant)) 84.2 ± 3^ mg/mL.
